How the values were obtained:
[1] = tested on: SERCA; test: Activation of SERCA (NADH-linked, enzyme-coupled ATPase assay); assay type: biochemical; details: for Increase in Vmax at 10 μM: SERCA ATPase, compound at 10 μM; for EC50: SR vesicles, concentration for 50% activation of the maximum Vmax
Description: Test compounds were characterized over a range of concentrations using an NADH-linked, enzyme-coupled ATPase assay. Each well contained […] of SR vesicles (optimized for skeletal or cardiac SR, respectively), 50 mM MOPS (pH 7.0), 100 mM KCl, 5 mM MgCl2, 1 mM EGTA, 0.2 mM NADH, 1 mM phosphoenol pyruvate, 5 IU pyruvate kinase, 5 IU lactate dehydrogenase, and […] A23187 (a calcium ionophore), and CaCl2 was added to set free [Ca^2+] to the specific values. The assay was started upon addition of ATP at a final concentration of 5 mM, and read in a SpectraMax Plus microplate spectrophotometer and the ATPase activities were fitted using the Hill function. ECso values were determined as the concentrations of the test compounds that were required for 50% activation of the maximum Vmax.
The biological results are summarized in Table 1, wherein, for SERCA ATPase EC50 values, A represents a value smaller than 20 μM, B represents a value between 20 μM to 100 μM, C represents a value greater than 100 μM; and for increases in Vmax at 10 μM, A′ represents an increase greater than 50%, B′ represents an increase between 20 to 50%, and C′ represents an increase no greater than 20%.

[2] = tested on: HEK293 cells / N2a cells under ER stress; test: ER stress cell rescue assay (protection against thapsigargin- or hydrogen peroxide-induced cell-death); assay type: cell-based, human (HEK293), mouse (N2a); details: cell rescue from induced ER stress; cell line of the EC50 not specified
Description: Protection against Thapsigargin (TG)-induced Cell-death. Human embryonic kidney (HEK293) cells were grown in Dulbecco's Modified Eagle's Medium (DMEM) with 10% FBS and 1% antibiotic antimycotic solution (ABAM). Mouse neuroblastoma (N2a) cells were grown in 1:1 DMIEM:OPTI-MEM® with 5% FBS and 1% ABAM. All cells were grown in 10% CO2 in a humidified environment of the incubator. Cells grown in 96-well plates were exposed to a test compound (20 μM) for 2 hrs before addition of thapsigargin (15 μM for HEK293 cells and 1 μM for N2a cells) to induce ER stress. After incubation in cell-culture incubator for 24 hrs, ALAMARBLUE® regent (10% v/v) was added to the wells. Fluorescence reading was taken 2 hrs after the addition of the ALAMARBLUE® regent. Cell-viability was calculated as a percentage of relative fluorescence unit (RFU) compared to control.
Protection against Hydrogen Peroxide-induced Cell-death. N2a cell grown in 96-well plates were exposed to a test compound (40 μM) for 2 hrs before addition of hydrogen peroxide (200 μM). After 40 min of incubation with hydrogen peroxide, ALAMARBLUE® regent (10% v/v) was added to the wells. Fluorescence reading was taken 2 hrs after the addition of the ALAMARBLUE® regent. Cell-viability was calculated as a percentage of relative fluorescence unit (RFU) compared to control.
The results are summarized in Table 1, where, for ER stress cell rescue ECso values, A represents a value smaller than 20 μM, B represents a value between 20 μM to 100 μM, C represents a value greater than 100 μM.

| SMILES | Increase in Vmax at 10 μM [1] | EC50 [1] [µM] | EC50 [2] [µM] |
| --- | --- | --- | --- |
| Cc1ccc2cccc(NCc3ccc(Br)s3)c2n1 [C3, N-((5-Bromothiophen-2-yl)methyl)-2-methylquinolin-8-amine] | B′ (B′ represents an increase between 20 to 50%) | < 20 | < 20 |
| Cc1ccc2cccc(NS(=O)(=O)c3ccc(OC(C)C)cc3)c2n1 [D1, N-(2-Methylquinolin-8-yl)-5-isopropoxyphenyl-2-sulfonamide] | C′ (C′ represents an increase no greater than 20%) | < 20 | < 20 |
| Cc1ccc2cccc(-c3nc(-c4ccc(Br)s4)no3)c2n1 [B2, 3-(5-Bromothiophen-2-yl)-5-(2-methylquinolin-8-yl)-1,2,4-oxadiazole] | B′ (B′ represents an increase between 20 to 50%) | < 20 | < 20 |
| Cc1ccc2cccc(/C=C/c3ccc(OC(C)C)cc3)c2n1 [A1, (E)-8-(Isopropoxystyryl)-2-methylquinoline] |  |  | < 20 |
| Cc1ccc2cccc(-c3nc(-c4ccc(OC(C)C)cc4)no3)c2n1 [B1, 3-(4-Isopropoxyphenyl)-5-(2-methylquinolin-8-yl)-1,2,4-oxadiazole] | B′ (B′ represents an increase between 20 to 50%) | < 20 | < 20 |
| Cc1ccc2cccc(NCc3ccc(OC(C)C)cc3)c2n1 [C1, N-((4-Isopropoxyphenyl)methyl)-2-methylquinolin-8-amine] | B′ (B′ represents an increase between 20 to 50%) | < 20 | < 20 |
| Cc1ccc2cccc(NS(=O)(=O)c3ccc(Br)s3)c2n1 [D3, 5-Bromo-N-(2-methylquinolin-8-yl)thiophene-2-sulfonamide] | B′ (B′ represents an increase between 20 to 50%) | < 20 | < 20 |
| Cc1ccc2cccc(NCc3cc(Br)cs3)c2n1 [C2, N-((4-Bromothiophen-2-yl)methyl)-2-methylquinolin-8-amine] | B′ (B′ represents an increase between 20 to 50%) | < 20 | < 20 |
| Cc1ccc2cccc(NS(=O)(=O)c3cc(Br)cs3)c2n1 [D2, 4-Bromo-N-(2-methylquinolin-8-yl)thiophene-2-sulfonamide] | B′ (B′ represents an increase between 20 to 50%) | < 20 | < 20 |
